From patent US6153587A, “Conformationally constrained LH-RH analogues, their uses and pharmaceutical compositions containing them” (Laboratoire THERAMEX, priority 1996, dated 2000) come the findings set out here.

The target in this experiment is T1, LH-RH receptors (Rattus norvegicus, UniProt P30969).
T1 construct: from tissue; host or cells: rat pituitary membrane fraction (female Sprague Dawley)
T1 sequence (P30969 1-327): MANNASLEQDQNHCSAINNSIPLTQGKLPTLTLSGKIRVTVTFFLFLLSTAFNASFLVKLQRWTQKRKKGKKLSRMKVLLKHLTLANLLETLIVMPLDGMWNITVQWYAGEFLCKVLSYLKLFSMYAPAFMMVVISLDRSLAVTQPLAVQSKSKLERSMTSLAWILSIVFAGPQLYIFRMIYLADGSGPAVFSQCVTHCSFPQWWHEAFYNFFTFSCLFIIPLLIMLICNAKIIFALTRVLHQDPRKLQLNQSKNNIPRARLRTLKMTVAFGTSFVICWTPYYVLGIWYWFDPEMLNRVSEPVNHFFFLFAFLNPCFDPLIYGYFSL
As to the kind of experiment: Affinity for LH-RH receptors: [125I]-buserelin binding to rat pituitary membranes. The conditions noted are these: 2 hours at 4° C., 20 to 70 μM [125I]-buserelin, Ki from IC50 by Cheng-Prusoff, read-out: pKi (affinity for LH-RH receptors) (converted). Here is the method:
This affinity has been determined according to the following method:
Pituitaries from female Sprague Dawley rats were removed and homogenized with a Potter homogenizer in a 25 mM HEPES buffer (pH 7.4) containing 0.32 M sucrose, 100 μg/l PMSF (phenylmethylsulfonylfluoride), 5.6 U/l aprotinin and 10,000 U/l bacitracin. The homogenates were centrifuged at 700 g for 10 minutes and the supernatants were further centrifuged at 12,500 g for 30 minutes. The pellets were homogenized and centrifuged as described above, in the same buffer but without sucrose.
All homogenization, centrifugation and subsequent incubation steps were carried out at 4° C.
The assay was terminated by filtration under suction (Brandel 96-well harvester) through Whatman GF/B glass fiber filters. […] Each compound was tested in at least 4 experiments.
Specific binding data were analysed according to Scatchard's method.
For each test compound, the inhibitory constant (Ki) was calculated from its IC50 according to the Cheng and Prussofs equation: Ki=IC50 /(1+[radioligand]/Kd). Ki was then transformed into pKi (=-log Ki) for final expression of affinity scales.
Consider `CC(C)C[C@@H](C(=O)N[C@@H](CCCNC(=N)N)C(=O)N1CCC[C@H]1C(=O)N[C@H](C)C(N)=O)N1CC[C@@]2(CCCN2C(=O)[C@H](Cc2ccc(O)cc2)NC(=O)[C@H](CO)NC(=O)[C@H](Cc2c[nH]c3ccccc23)NC(=O)[C@@H](Cc2ccccc2)NC(=O)[C@@H]2CCC(=O)N2)C1=O` [Example 21, pGlu-DPhe-Trp-Ser-Tyr-SPL-Leu-Arg-Pro-DAlaNH2], for which the Ki is 9770 pM.

Consider `CC(=O)N[C@H](Cc1ccc2ccccc2c1)C(=O)N[C@H](Cc1ccc(Cl)cc1)C(=O)N[C@H](Cc1csc2ccccc12)C(=O)N[C@@H](CO)C(=O)N[C@@H](Cc1ccc(O)cc1)C(=O)N1CCC[C@@]12CCN([C@@H](CC(C)C)C(=O)N[C@@H](CCCNC(=N)N)C(=O)N1CCC[C@H]1C(=O)N[C@H](C)C(N)=O)C2=O` [Example 24, AcDNal-DpClPhe-DBal-Ser-Tyr-SPL-Leu-Arg-Pr-DAlaNH2], for which the Ki was 251 pM.

As for `CCNC(=O)[C@@H]1CCCN1C(=O)[C@H](CCCNC(=N)N)NC(=O)[C@H](CC(C)C)N1CC[C@@]2(CCCN2C(=O)[C@H](Cc2ccc(O)cc2)NC(=O)[C@H](CO)NC(=O)[C@H](Cc2cccc3ccccc23)NC(=O)[C@H](Cc2c[nH]cn2)NC(=O)[C@@H]2CCC(=O)N2)C1=O` [Example 11, pGlu-His-INal-Ser-Tyr-SPL-Leu-Arg-Pro-NEt], the Ki is 427 pM.

For `CC(=O)N[C@H](Cc1ccc2ccccc2c1)C(=O)N[C@H](Cc1ccc(Cl)cc1)C(=O)N[C@H](Cc1cccnc1)C(=O)N[C@@H](CO)C(=O)N[C@@H](CCCCNC(C)C)C(=O)N1CCC[C@@]12CCN([C@@H](CC(C)(C)C)C(=O)N[C@@H](CCCNC(=N)N)C(=O)N1CCC[C@H]1C(=O)N[C@H](C)C(N)=O)C2=O` [Example 27, AcDNal-DpCtPhe-DPal-Ser-IprLys-SPL-Npg-Arg-Pro-DAlaNH2], the Ki was 97.7 pM.

Turning to `CC(=O)N[C@H](Cc1ccc2ccccc2c1)C(=O)N[C@H](Cc1ccc(Cl)cc1)C(=O)N[C@H](Cc1cccnc1)C(=O)N[C@@H](CO)C(=O)N[C@@H](CCCCNC(=O)c1cccnc1)C(=O)N1CCC[C@@]12CCN([C@@H](CC(C)(C)C)C(=O)N[C@@H](CCCCNC(C)C)C(=O)N1CCC[C@H]1C(=O)N[C@H](C)C(N)=O)C2=O` [Example 29, AcDNal-DpClPhe-DPal-Ser-NicLys-SPL-Npg-IprLys-Pro-DAlaNH2], the Ki was 363 pM.

As for `CCNC(=O)[C@@H]1CCCN1C(=O)[C@H](CCCNC(=N)N)NC(=O)[C@@H](N1CC[C@@]2(CCCN2C(=O)[C@H](Cc2ccc(O)cc2)NC(=O)[C@H](CO)NC(=O)[C@H](Cc2c[nH]c3ccccc23)NC(=O)[C@H](Cc2c[nH]cn2)NC(=O)[C@@H]2CCC(=O)N2)C1=O)C(C)(C)C` [Example 17, pGlu-His-Trp-Ser-Tyr-SPL-Tle-Arg-Pro-NEt], the Ki was 1780 pM.

As for `CC(=O)N[C@H](Cc1ccc2ccccc2c1)C(=O)N[C@H](Cc1ccc(Cl)cc1)C(=O)N[C@H](Cc1cccnc1)C(=O)N[C@@H](CO)C(=O)N[C@@H](Cc1ccc(O)cc1)C(=O)N1CCC[C@@]12CCN([C@@H](CC(C)C)C(=O)N[C@@H](CCCNC(=N)N)C(=O)N1CCC[C@H]1C(=O)N[C@H](C)C(N)=O)C2=O` [Example 23, AcDNal-DpClPhe-DPal-Ser-Tyr-SPL-Leu-Arg-Pro-DAlaNH2], the Ki is 155 pM.

Regarding `CC(C)C[C@@H](C(=O)N[C@@H](CCCNC(=N)N)C(=O)N1CCC[C@H]1C(=O)NCC(N)=O)N1CC[C@@]2(CCCN2C(=O)[C@H](Cc2ccc(O)cc2)NC(=O)[C@H](CO)NC(=O)[C@H](Cc2c[nH]c3ccccc23)NC(=O)[C@@H](Cc2ccccc2)NC(=O)[C@@H]2CCC(=O)N2)C1=O` [Example 20, pGlu-DPhe-Trp-Ser-Tyr-SPL-Leu-Arg-Pro-Gly-NH2], the Ki was 4070 pM.

Consider `CCNC(=O)[C@@H]1CCCN1C(=O)[C@H](CCCNC(=N)N)NC(=O)[C@H](CC(C)C)N1CC[C@@]2(CCCN2C(=O)[C@H](Cc2ccc(O)cc2)NC(=O)[C@H](CO)NC(=O)[C@H](Cc2ccc3ccccc3c2)NC(=O)[C@H](Cc2c[nH]cn2)NC(=O)[C@@H]2CCC(=O)N2)C1=O` [Example 12, pGlu-His-Nal-Ser-Tyr-SPL-Leu-Arg-Pro-NEt], for which the Ki is 105 pM.

As for `CCCC[C@@H](C(=O)N[C@@H](CCCNC(=N)N)C(=O)N1CCC[C@H]1C(=O)NCC)N1CC[C@@]2(CCCN2C(=O)[C@H](Cc2ccc(O)cc2)NC(=O)[C@H](CO)NC(=O)[C@H](Cc2c[nH]c3ccccc23)NC(=O)[C@H](Cc2c[nH]cn2)NC(=O)[C@@H]2CCC(=O)N2)C1=O` [Example 18, pGlu-His-Trp-Ser-Tyr-SPL-Nle-Arg-Pro-NEt], the Ki was 2040 pM.

With `CCNC(=O)[C@@H]1CCCN1C(=O)[C@H](CCCNC(=N)N)NC(=O)[C@H](CCC(C)C)N1CC[C@@]2(CCCN2C(=O)[C@H](Cc2ccc(O)cc2)NC(=O)[C@H](CO)NC(=O)[C@H](Cc2c[nH]c3ccccc23)NC(=O)[C@H](Cc2c[nH]cn2)NC(=O)[C@@H]2CCC(=O)N2)C1=O` [Example 15, pGlu-His-Trp-Ser-Tyr-SPL-Hol-Arg-Pro-NEt], the Ki is 2290 pM.

Regarding `CCNC(=O)[C@@H]1CCCN1C(=O)[C@H](CCCNC(=N)N)NC(=O)[C@H](CC(C)(C)C)N1CC[C@@]2(CCCN2C(=O)[C@H](Cc2ccc(O)cc2)NC(=O)[C@H](CO)NC(=O)[C@H](Cc2c[nH]c3ccccc23)NC(=O)[C@H](Cc2c[nH]cn2)NC(=O)[C@@H]2CCC(=O)N2)C1=O` [Example 16, pGlu-His-Trp-Ser-Tyr-SPL-Npg-Arg-Pro-NEt], the Ki was 550 pM.

Take `CC(=O)N[C@H](Cc1ccc2ccccc2c1)C(=O)N[C@H](Cc1ccc(Cl)cc1)C(=O)N[C@H](Cc1cccnc1)C(=O)N[C@@H](CO)C(=O)N[C@@H](Cc1ccc(O)cc1)C(=O)N1CCC[C@@]12CCN([C@@H](CC(C)(C)C)C(=O)N[C@@H](CCCNC(=N)N)C(=O)N1CCC[C@H]1C(=O)N[C@H](C)C(N)=O)C2=O` [Example 25, AcDNal-DpClPhe-DPal-Ser-Tyr-SPL-Npg-Arg-Pro-DAlaNH2]: the Ki was 245 pM.

Consider `CC(=O)N[C@H](Cc1ccc2ccccc2c1)C(=O)N[C@H](Cc1ccc(Cl)cc1)C(=O)N[C@H](Cc1cccnc1)C(=O)N[C@@H](CO)C(=O)N[C@@H](CCCCNC(=O)c1cccnc1)C(=O)N1CCC[C@@]12CCN([C@@H](CC(C)(C)C)C(=O)N[C@@H](CCCNC(=N)N)C(=O)N1CCC[C@H]1C(=O)N[C@H](C)C(N)=O)C2=O` [Example 26, AcDNal-DpClPhe-DPal-Ser-NicLys-SPL-Npg-Arg-Pro-DAlaNH2], for which the Ki is 263 pM.

In the case of `CC(=O)N[C@H](Cc1ccc2ccccc2c1)C(=O)N[C@H](Cc1ccc(Cl)cc1)C(=O)N[C@H](Cc1c[nH]c2ccccc12)C(=O)N[C@@H](CO)C(=O)N[C@@H](Cc1ccc(O)cc1)C(=O)N1CCC[C@@]12CCN([C@@H](CC(C)C)C(=O)N[C@@H](CCCNC(=N)N)C(=O)N1CCC[C@H]1C(=O)N[C@H](C)C(N)=O)C2=O` [Example 22, AcDNal-DpClPhe-DTrp-Ser-Tyr-SPL-Leu-Arg-Prx)-DAlaNH2], the Ki was 891 pM.

For `CC(=O)N[C@H](Cc1ccc2ccccc2c1)C(=O)N[C@H](Cc1ccc(Cl)cc1)C(=O)N[C@H](Cc1cccnc1)C(=O)N[C@@H](CO)C(=O)N[C@@H](Cc1ccc(O)cc1)C(=O)N1CCC[C@@]12CCN([C@@H](CC(C)(C)C)C(=O)N[C@@H](CCCCNC(C)C)C(=O)N1CCC[C@H]1C(=O)N[C@H](C)C(N)=O)C2=O` [Example 28, AcDNal-DpCtPhe-DPal-Ser-Tyr-SPL-Npg-IprLys-Pro-DAlaNH2], the Ki is 309 pM.
